Patent US8299083B2, “PDE5 inhibitor compositions and methods for treating cardiac indications” (The Johns Hopkins University, priority 2004, dated 2012)

Columns and labels:
[1] = system: healthy human volunteers, dobutamine-stimulated cardiac function; test: Dobutamine stress test before and after oral study drug, randomized double-blind placebo-controlled; assay type: in vivo
Excerpt: Forty healthy volunteers were recruited from the general population in response to advertisements posted in the surrounding community. Subjects were screened by medical history, physical examination, and transthoracic echocardiogram. Individuals with heart disease, atherosclerosis, hypertension, diabetes mellitus, pulmonary hypertension, renal or hepatic disease, smoking, pregnancy, or under treatment with nitrates, adrenergic-blocking drugs, or medicines known to interfere with sildenafil pharmacokinetics were excluded. […] All subjects were instructed to fast for >6 hours prior to study. […] Intravenous dobutamine (5 μg/kg/min) was then administered for 5 minutes to achieve a stable response, and measurements repeated (D1). Dobutamine was discontinued, and 15 minutes provided to return to the baseline state. […] Data were again recorded for a second baseline (B2), and during a second dobutamine infusion (D2) using the identical protocol as for the first test. Systolic function was determined by cardiac-specific indexes that combined measurements of pressure, dimension, and flow. Arterial pressure was determined by an oscillometric arm cuff ([…] 2-dimensional echo-Doppler measurements by an Agilent Sonos 5500 (Philips, The Netherlands) employing a 3 MHz probe. All echo-Doppler measurements were digitally acquired to optical disc and analyzed offline by a single blinded investigator. Each measurement reflected the average of at least 3 separate beats. Aortic flow was equal to the velocity time-integral from pulse-wave Doppler in the left ventricular outflow tract multiplied by cross sectional […].^83 Stroke volume, peak, and mean flow were determined from this waveform. Cardiac output was the product of heart rate and stroke volume. Systemic vascular resistance was the ratio of mean arterial pressure (1⁄3 pulse pressure+diastolic blood pressure) to cardiac output. Cardiac contractility was assessed by several load-independent indexes. […] Load-independent secondary outcome contractility parameters were mean ventricular power index and the end-systolic pressure/volume ratio, an approximation for ventricular end systolic elastance. Other secondary outcome variables included routine measures of cardiac systolic and diastolic function. Ejection fraction was determined from cardiac end-diastolic and systolic volumes determined by Simpson's method using apical 4- and 2-chamber views. End-diastolic volume was equal to stroke volume (from Doppler) divided by ejection fraction, with end-systolic volume equal to the difference of the former and latter. Pulse-wave Doppler spectra of transmittal inflow and tissue Doppler imaging of the lateral mitral annular (E') velocities were used to assess diastolic function.^89 The ratio of E/E' was determined as a surrogate marker of left ventricular filling pressures as previously validated^90. Isovolumic relaxation time was measured by continuous wave Doppler as the time between aortic flow cessation and onset of mitral inflow. All statistical analysis was performed using Systat® software. Results are expressed as mean±standard deviation. […] The primary test was a test between group analysis of whether sildenafil (versus placebo) altered the disparity between the first and second dobutamine response, and determined by a three-way interaction term that included each grouping factor. […] Within group analysis was also performed using a 2-tailed Student's paired t-test to assess individual dobutamine responses ([…]2), and a 2-way ANOVA to test whether study drug altered this response within in each group. Categorical variables were compared using the Chi-squared test.

[2] = system: neonatal rat cardiac myocytes; test: Phenylephrine-induced hypertrophy of neonatal rat cardiomyocytes (sarcomere organization, 3H-leucine incorporation); assay type: cell-based; conditions: phenylephrine 1 μM, sildenafil 100 nM or 1 μM
[3] = system: isolated adult murine myocytes; test: Isoproterenol-stimulated contraction of isolated adult cardiac myocytes; assay type: cell-based, mouse; conditions: sildenafil 100 nM
Procedure: Louis, Mo.) for 6-7 min. Ventricles were gently chopped, filtered (150μ mesh), centrifuged (500 RPM×1 min), and rinsed in Tyrode's solution with increasing calcium (final 1.8 mM Ca^2+). Cells were incubated with 5 μM Indo-1 AM (Molecular Probes), rinsed, and studied at 27° C. by field stimulation in an inverted fluorescence microscope (Diaphot 200; Nikon, Inc). Sarcomere length (IonOptix, MA) and whole cell calcium transients were measured.

RhoA, ROCK1 and ROCK2 = test: RhoA and Rho kinase expression and activity in TAC hearts; assay type: in vivo, mouse; conditions: 3 weeks TAC
Procedure: RhoA activity assay was performed by immunoprecipitation using a commercially available immobilized antibody (SEIZE X IP, Pierce Biotechnology, IL). The antibody used was a rabbit polyclonal antibody raised against RboA (Upstate, NY [1:2500]) and subsequent commercial activity assay according to manufacturer's specification (Upstate Biotechnology, NY).
Protein lysates from whole myocardium and isolated cardiac myocytes were obtained using lysis buffer (Cell Signaling Technology, Beverly, Mass.) with mini-protease inhibitor (Roche, Ind.) and 5% Triton (Sigma Chemical (St. Louis, Mo.). Following 12,000 g centrifugation for 30 minutes, protein was quantified (Pierce Rockford, Ill.), NUPage LDS sample buffer added (Biorad, Hercules, Calif.), and lysates electrophoresed on NuPAGE 4-12% Bis-Tris polyacrylamide gels (Invitrogen, San Diego, Calif.). Membranes were incubated with rabbit polyclonal antibodies raised against ROCK1 or ROCK2 (Cell Signaling Technology, Beverly, Mass.) [1:3,000].

[4] = dobutamine-induced change after sildenafil
[5] = resting baseline after vs before 100 mg oral sildenafil
[6] = second versus initial dobutamine response

Compound: CCCc1nn(C)c2c(=O)[nH]c(-c3cc(S(=O)(=O)N4CCN(C)CC4)ccc3OCC)nc12 [sildenafil]
- dobutamine-induced change in ventricular end-systolic elastance ([1]; after sildenafil 100 mg oral): 0.84±0.9 mmHg/ml
- dobutamine-induced increase in ejection fraction (absolute change) ([1]; after sildenafil 100 mg oral): 4±5%
- dobutamine-induced increase in heart rate ([1]; after sildenafil 100 mg oral): +14.5±4.7 bpm
- dobutamine-mediated drop in peripheral resistance ([1]; after sildenafil 100 mg oral): not modified
- diastolic changes induced by dobutamine ([1]; compared to placebo): did not significantly alter diastolic changes induced by dobutamine
- A velocity, D2 − B2 [1, 4]: 11 ± 7 cm/s
- E velocity, D2 − B2 [1, 4]: 12 ± 11 cm/s
- E′ velocity, D2 − B2 [1, 4]: 1.5 ± 2.4 cm/s
- IVRT, D2 − B2 [1, 4]: −20 ± 13
- A velocity, Δ(B2 − B1) [1, 5]: -3 ± 8 cm/s
- Diastolic Blood Pressure, Δ(B2 − B1) [1, 5]: −6 ± 5 mmHg
- E velocity, Δ(B2 − B1) [1, 5]: -4 ± 12 cm/s
- Ejection Fraction, Δ(B2 − B1) [1, 5]: +6 ± 2
- End Systolic Elastance, Δ(B2 − B1) [1, 5]: +0.4 ± 0.2 mmHg/mL
- E′ velocity, Δ(B2 − B1) [1, 5]: +0 ± 3 cm/sec
- Heart Rate, Δ(B2 − B1) [1, 5]: +0 ± 3 min^−1
- IVRT, Δ(B2 − B1) [1, 5]: +8 ± 12 msec
- Stroke Volume, Δ(B2 − B1) [1, 5]: +5 ± 6 mL
- Systolic Blood Pressure, Δ(B2 − B1) [1, 5]: −6 ± 3 mmHg
- Total Peripheral Resistance, Δ(B2 − B1) [1, 5]: −170 ± 60 dyne * s/cm^5
- reduction of dobutamine-induced ejection fraction change [1, 6]: 66±64%
- reduction of dobutamine-induced end-systolic elastance change [1, 6]: 56±63%
- reduction of dobutamine-induced peak power change [1, 6]: 32±34%
- adverse events ([1]; single 100 mg oral dose, healthy volunteers): no adverse events
- PE-induced cellular hypertrophy (sarcomere organization, protein synthesis) [2]: suppressed
- isoproterenol-enhanced contraction of isolated cardiac muscle cells [3]: blunted
- RhoA and Rho-kinase expression and activity (RhoA, ROCK1 and ROCK2): inhibits RhoA, Rho-Kinase1 (ROCK1) and Rho-Kinase2 protein expression and activity
